From ChEMBL document CHEMBL4184248, “A multicomponent approach in the discovery of indoleamine 2,3-dioxygenase 1 inhibitors: Synthesis, biological investigation and docking studies” (Bioorg Med Chem Lett, 2018) come the findings set out here.

Experiment [1] deals with A-375. Description: Cytotoxicity in human A375 cells assessed as cell viability at 10 uM incubated for 48 hrs by MTT assay. It is filed as functional. The note with it: A-375, 48 h, read-out: Activity. (In general: Tetrazolium dyes change colour on reduction, which living cells bring about.)
Experiment [2] concerns the target T1, Indoleamine 2,3-dioxygenase 1 (Homo sapiens, UniProt P14902). Description: Inhibition of human recombinant IDO1 assessed as reduction in kynurenine production at 1 uM using L-tryptophan incubated for 60 mins by Ehrlich's reagent based assay.
Target sequence in this assay (P14902 whole entry, looked up): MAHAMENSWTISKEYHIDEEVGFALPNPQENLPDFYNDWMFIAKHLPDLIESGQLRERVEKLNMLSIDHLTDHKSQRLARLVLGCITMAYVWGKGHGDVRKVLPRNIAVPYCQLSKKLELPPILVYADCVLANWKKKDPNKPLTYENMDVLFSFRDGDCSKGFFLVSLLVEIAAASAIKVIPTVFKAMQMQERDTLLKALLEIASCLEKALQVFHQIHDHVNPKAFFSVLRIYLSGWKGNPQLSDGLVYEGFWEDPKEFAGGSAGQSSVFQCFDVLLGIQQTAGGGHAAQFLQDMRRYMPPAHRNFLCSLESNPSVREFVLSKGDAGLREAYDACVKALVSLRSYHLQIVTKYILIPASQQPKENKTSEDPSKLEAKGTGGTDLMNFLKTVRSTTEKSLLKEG
The target in experiment [3] is T1, Indoleamine 2,3-dioxygenase 1. Description: Inhibition of human recombinant IDO1 assessed as reduction in kynurenine production using L-tryptophan incubated for 60 mins by Ehrlich's reagent based assay.
Target sequence in this assay (P14902 whole entry): as the sequence (P14902 whole entry, looked up) above

As for `CN(CC(=O)NCc1cnc2scc(-c3ccc(Br)cc3)n12)C(=O)Cc1ccc(Cl)cc1`, in experiment [1], the viability at 10 µM is 64%. The inhibition in experiment [2] is 51%.

With `O=C(COC(=O)Cc1ccccc1)NCc1cnc2scc(-c3ccc(Br)cc3)n12`, the viability at 10 µM in experiment [1] was 98%. In experiment [2], the inhibition amounted to 72%. Moreover, the half-maximal inhibitory concentration (IC50) in experiment [3] is 580 nM.

Consider `CN(CC(=O)NCc1cnc2scc(-c3ccc(Br)cc3)n12)C(=O)c1ccc([N+](=O)[O-])cc1`, for which the viability at 10 µM in experiment [1] turned out to be 100%. For the same compound, the inhibition in experiment [2] is 45%.

As for `CN(CC(=O)NCc1cnc2scc(-c3ccc(Br)cc3)n12)C(=O)Cc1ccc(O)c(O)c1`, in experiment [1], the viability at 10 µM amounted to 99%. In experiment [2], the inhibition was 34%.

For `O=C(COC(=O)Cc1ccc(O)c(O)c1)NCc1cnc2scc(-c3ccc(Br)cc3)n12`, the viability at 10 µM in experiment [1] came out at 99%. Moreover, in experiment [2], the inhibition was found to be 40%.

Take `CN(CC(=O)NCc1cnc2scc(-c3ccc(Br)cc3)n12)C(=O)Cc1ccc(O)cc1`: in experiment [1], the viability at 10 µM was 91%. In addition, in experiment [2], the inhibition worked out at 55%.

With `NS(=O)(=O)NCCNc1nonc1/C(=N/O)Nc1ccc(F)c(Br)c1` [EPACADOSTAT], the viability at 10 µM in experiment [1] stood at 100%.

Take `CN(CC(=O)NCc1cnc2scc(-c3ccc(Br)cc3)n12)C(=O)Cc1ccc(C#N)cc1`: in experiment [1], the viability at 10 µM was found to be 92%. Moreover, the inhibition in experiment [2] stood at 18%.

As to `CN(CC(=O)NCc1cnc2scc(-c3ccc(Br)cc3)n12)C(=O)Cc1ccccc1O`, the viability at 10 µM in experiment [1] came to 88%. In addition, the inhibition in experiment [2] came to 0%.

For `CN(CC(=O)NCc1cnc2scc(-c3ccc(Br)cc3)n12)C(=O)Cc1ccccc1`, the viability at 10 µM in experiment [1] turned out to be 100%. For the same compound, in experiment [2], the inhibition came out at 62%. In addition, the IC50 in experiment [3] was 690 nM.

Take `O=C(COC(=O)Cc1cccc(O)c1)NCc1cnc2scc(-c3ccc(Br)cc3)n12`: the viability at 10 µM in experiment [1] worked out at 100%. Also, the inhibition in experiment [2] came out at 59%.

In the case of `O=C(COC(=O)Cc1cccc([N+](=O)[O-])c1)NCc1cnc2scc(-c3ccc(Br)cc3)n12`, the viability at 10 µM in experiment [1] came to 100%. Besides, the inhibition in experiment [2] stood at 50%.

For `CN(CC(=O)NCc1cnc2scc(-c3ccc(Br)cc3)n12)C(=O)c1ccc(C#N)cc1`, the viability at 10 µM in experiment [1] was determined as 87%. The inhibition in experiment [2] amounted to 47%.

Regarding `CN(CC(=O)NCc1cnc2scc(-c3ccc(Br)cc3)n12)C(=O)Cc1cccc(C#N)c1`, the viability at 10 µM in experiment [1] stood at 90%. The inhibition in experiment [2] was found to be 0%.

For `O=C(CO)NCc1cnc2scc(-c3ccc(Br)cc3)n12`, the viability at 10 µM in experiment [1] is 97%. Moreover, the inhibition in experiment [2] is 48%.

As to `N[C@H](C(=O)NCC(=O)NCc1cnc2scc(-c3ccc(Br)cc3)n12)c1ccc(O)cc1`, the viability at 10 µM in experiment [1] was 100%. In experiment [2], the inhibition amounted to 0%.

Turning to `CN(CC(=O)NCc1cnc2scc(-c3ccc(Br)cc3)n12)C(=O)c1ccccc1`, the viability at 10 µM in experiment [1] worked out at 96%. In addition, the inhibition in experiment [2] worked out at 50%.

As to `O=C(COC(=O)Cc1ccccc1Cl)NCc1cnc2scc(-c3ccc(Br)cc3)n12`, the viability at 10 µM in experiment [1] is 100%. In addition, the inhibition in experiment [2] worked out at 46%.

As for `N#Cc1cccc(CC(=O)OCC(=O)NCc2cnc3scc(-c4ccc(Br)cc4)n23)c1`, in experiment [1], the viability at 10 µM came out at 97%. In experiment [2], the inhibition is 29%.

In the case of `COc1cccc(C(=O)N(C)CC(=O)NCc2cnc3scc(-c4ccc(Br)cc4)n23)c1`, the viability at 10 µM in experiment [1] turned out to be 98%. In addition, the inhibition in experiment [2] was found to be 48%.

Turning to `O=C(COC(=O)Cc1cccc(Cl)c1)NCc1cnc2scc(-c3ccc(Br)cc3)n12`, the viability at 10 µM in experiment [1] amounted to 100%. The inhibition in experiment [2] was determined as 39%.

Regarding `N#Cc1ccc(NC(=O)NCc2cnc3scc(-c4ccc(Br)cc4)n23)cc1`, the viability at 10 µM in experiment [1] turned out to be 99%. Besides, in experiment [2], the inhibition was found to be 97%. In experiment [3], the IC50 amounted to 80 nM.

For the compound `O=C(COC(=O)Cc1ccc(Cl)cc1)NCc1cnc2scc(-c3ccc(Br)cc3)n12`, the viability at 10 µM in experiment [1] came out at 100%. Besides, the inhibition in experiment [2] came out at 32%.

`O=C(COC(=O)Cc1ccccc1O)NCc1cnc2scc(-c3ccc(Br)cc3)n12`: the viability at 10 µM in experiment [1] is 100%. For the same compound, the inhibition in experiment [2] turned out to be 73%. In addition, the IC50 in experiment [3] came to 870 nM.

Turning to `O=C(CNC(=O)Cc1ccccc1)NCc1cnc2scc(-c3ccc(Br)cc3)n12`, the viability at 10 µM in experiment [1] came out at 100%. For the same compound, in experiment [2], the inhibition turned out to be 46%.

For the compound `N[C@H](C(=O)NCC(=O)NCc1cnc2scc(-c3ccc(Br)cc3)n12)c1ccccc1`, in experiment [1], the viability at 10 µM turned out to be 96%. Also, in experiment [2], the inhibition was found to be 10%.

On to `CC(=O)N(C)CC(=O)NCc1cnc2scc(-c3ccc(Br)cc3)n12`, for which the viability at 10 µM in experiment [1] came out at 98%. Besides, the inhibition in experiment [2] came to 21%.

Turning to `O=C(COC(=O)Cc1ccccc1[N+](=O)[O-])NCc1cnc2scc(-c3ccc(Br)cc3)n12`, the viability at 10 µM in experiment [1] worked out at 100%. Besides, the inhibition in experiment [2] turned out to be 41%.

As for `CN(CC(=O)NCc1cnc2scc(-c3ccc(Br)cc3)n12)C(=O)Cc1cccc([N+](=O)[O-])c1`, the viability at 10 µM in experiment [1] was found to be 93%. For the same compound, the inhibition in experiment [2] was found to be 65%. Moreover, the concentration for half-maximal inhibition (IC50) in experiment [3] was determined as 630 nM.

On to `CN(CC(=O)NCc1cnc2scc(-c3ccc(Br)cc3)n12)C(=O)Cc1ccc([N+](=O)[O-])cc1`, for which, in experiment [1], the viability at 10 µM stood at 100%. Besides, the inhibition in experiment [2] stood at 66%. Also, the concentration for half-maximal inhibition (IC50) in experiment [3] turned out to be 810 nM.

As to `O=C(COC(=O)Cc1ccc(O)cc1)NCc1cnc2scc(-c3ccc(Br)cc3)n12`, in experiment [1], the viability at 10 µM came to 100%. Besides, the inhibition in experiment [2] was determined as 89%. In experiment [3], the IC50 was 200 nM.

Turning to `CN(CC(=O)NCc1cnc2scc(-c3ccc(Br)cc3)n12)C(=O)Cc1ccccc1[N+](=O)[O-]`, in experiment [1], the viability at 10 µM is 92%. The inhibition in experiment [2] came to 67%. The IC50 in experiment [3] amounted to 730 nM.

`COc1ccc(C(=O)N(C)CC(=O)NCc2cnc3scc(-c4ccc(Br)cc4)n23)cc1`: the viability at 10 µM in experiment [1] is 82%. In addition, the inhibition in experiment [2] is 49%.

Regarding `O=C(COC(=O)Cc1ccc([N+](=O)[O-])cc1)NCc1cnc2scc(-c3ccc(Br)cc3)n12`, the viability at 10 µM in experiment [1] is 100%. In experiment [2], the inhibition was 39%.

As to `Cn1cc(C[C@H](N)C(=O)O)c2ccccc21` [(L)-1-METHYLTRYPTOPHAN], the viability at 10 µM in experiment [1] is 100%.

On to `CN(CC(=O)NCc1cnc2scc(-c3ccc(Br)cc3)n12)C(=O)Cc1cccc(Cl)c1`, for which the viability at 10 µM in experiment [1] is 83%. For the same compound, in experiment [2], the inhibition turned out to be 39%.

Turning to `CN(CC(=O)NCc1cnc2scc(-c3ccc(Br)cc3)n12)C(=O)Cc1cccc(O)c1`, in experiment [1], the viability at 10 µM was 100%. Further, the inhibition in experiment [2] was 63%. Moreover, in experiment [3], the IC50 is 450 nM.

Consider `CN(CC(=O)NCc1cnc2scc(-c3ccc(Br)cc3)n12)C(=O)Cc1ccccc1Cl`, for which, in experiment [1], the viability at 10 µM amounted to 71%. Besides, the inhibition in experiment [2] worked out at 41%.

For the compound `N#Cc1ccc(CC(=O)OCC(=O)NCc2cnc3scc(-c4ccc(Br)cc4)n23)cc1`, the viability at 10 µM in experiment [1] was 100%. For the same compound, the inhibition in experiment [2] worked out at 69%. In addition, the IC50 in experiment [3] stood at 340 nM.

Broadly, the inhibition is the percentage by which the read-out fell short of the control. One may read the IC50 as the concentration that inhibits the measured activity by half.
